Laboratory results as given in US20240131168A1, “NAPHTHALENE RING-CONTAINING COMPOUND, PHARMACEUTICAL COMPOSITION CONTAINING SAME, AND USE THEREOF” (JIANGSU YAHONG MEDITECH CO., LTD., priority 2021, published 2024).
pIC50: −log10 of the molar value.

Tests used:
Assay type in all cases: cell-based
MCF-7 ER^Y537S = assay: CellTiter-Glo cell proliferation inhibition, MCF-7 ER^Y537S; conditions: Homo sapiens, MCF7, 144 h; MCF-7 ER^Y537S (CTG), 6 days, starting concentration 10 μM; read-out: IH % max (maximum inhibition percentage)
Source text: (§1) 1. Cell line • (1) Breast cancer cell lines and their culture media: • MCF-7 (ATCC; Cat. No.: HTB-22), a Luminal A breast cancer cell; • TamR-MCF-7 (ATCC; Cat. No.: CRL-3435), a breast cancer cell; • MCF-7 ER^D538G: a Luminal A breast cancer cell obtained by constructing MCF-7 (ATCC; Cat. No.: HTB-22) using CRISPR-Cas9 gene editing technology; • MCF-7 ER^Y537S: a Luminal A breast cancer cell obtained by constructing MCF-7 (ATCC; Cat. No.: HTB-22) using CRISPR-Cas9 gene editing technology; • MDA-MB-231: (manufacturer: Nanjing CoBioer Biosciences Co., Ltd.), a triple-negative breast cancer cell; • MDA-MB-468: (manufacturer: Nanjing CoBioer Biosciences Co., Ltd.), a triple-negative breast cancer cell.
(§2) Herein, the culture medium of MCF-7, TamR-MCF-7, MCF-7 ER^D538G, and MCF-7 ER^Y537S was EMEM; • the culture medium of MDA-MB-231 and MDA-MB-468 was DMEM.
(§3) 2. Reagents • Culture medium EMEM (Gibco, 1964507) • Culture medium DMEM (Gibco, 12430-054) • Fetal bovine serum (Gibco, 10091148) • Penicillin-streptomycin double antibody (Gibco, S110JV) • DPBS (Gibco, 14190-144) • CellTiter-Glo® assay kit (Promega, G7573) • Trypsin (0.25%) (Gibco, 25200-056) • DMSO (Sigma, D2650)
(§4) 3. Instruments • Biosafety cabinet (AIRTECH, BSC-1300A II) • Automated cell counter (Life Technologies, countess II) • Multifunctional microplate reader (Biotek, H1FM) • Orbital shaker (Hangzhou Allsheng Instruments Co., Ltd., OS-100) • XLFIT 5.3 (Inforstack Shanghai Co., Ltd.)
(§5) For this test method, the following experiments were performed in a biosafety cabinet, with the specific steps as follows: • (1) Cells were inoculated in a 96-well plate. One day later, the previous culture medium was poured off, 5 mL of DPBS was added to wash the cells, and then DPBS was pipetted and discarded. An appropriate amount of trypsin was then added. The plate was digested in a 37° C., 5% CO2 cell incubator for about 2 to 5 minutes and then taken out. Anew corresponding culture medium was added, and pipetted up and down to resuspend the cells evenly. The cells were then counted using an automated cell counter. • (2) Each cell was inoculated in columns 1 to 11 of a 96-well plate (Corning, Cat. No.: 3610) at a density of 1,000 or 2,000 cells per well in 100 μL of culture medium, and 100 μL of the corresponding culture medium without cells was added to the wells in column 12. The plate was then placed in a 37° C., 5% CO2 incubator for 24 hours. • (3) The compound of the present disclosure and the control drug fulvestrant (Selleck; Cat. No.: S1191) were then 4-fold serially diluted to 10 dose points starting at 10 μM. 10 μL of the serially diluted compound was pipetted and added to 100 μL of cells in columns 1 to 10, and 10 μL of the corresponding culture medium containing 0.33 v % DMSO was added to both columns 11 and 12. The plate was incubated in a 37° C., 5% CO2 incubator for 6 days or 72 hours (Note: column 11 was used as a MAX well with cells but without compound; column 12 was used as a MIN well without cells […]). • (4) The cell viability detection reagent in the CellTiter-Glo® assay kit was then added to the 96-well plate at 50 μL per well according to the instructions, and shaken on an orbital shaker in the dark for 5 to 10 minutes. The cell viability was then measured using a multifunctional microplate reader. Finally, the inhibition of cell proliferation by the compound of the present disclosure was plotted by XLFIT software, and the IC50 value (half inhibitory concentration) and the IH % max (maximum inhibition percentage) of the compound of the present disclosure were calculated.

TamR-MCF-7 = assay: CellTiter-Glo cell proliferation inhibition, TamR-MCF-7; conditions: 144 h; TamR-MCF-7 (CTG), 6 days, starting concentration 10 μM; read-out: IH % max (maximum inhibition percentage)
Source text: as §1, §2, §3, §4, §5

MCF-7 ER^D538G = assay: CellTiter-Glo cell proliferation inhibition, MCF-7 ER^D538G; conditions: Homo sapiens, MCF7, 144 h, MCF-7 ER^D538G (CTG), 6 days, starting concentration 10 μM; for inhibition at up to 10 µM: read-out: IH % max (maximum inhibition percentage)
Source text: as §1, §2, §3, §4, §5

MCF-7 = assay: CellTiter-Glo cell proliferation inhibition, MCF-7 (Effect Example 2); conditions: Homo sapiens, MCF7, 144 h, MCF-7 (CTG), 6 days, starting concentration 10 μM; for inhibition at up to 10 µM: read-out: IH % max (maximum inhibition percentage)
Source text: as §1, §2, §3, §4, §5

MDA-MB-468 = assay: CellTiter-Glo cell proliferation inhibition, MDA-MB-468; conditions: Homo sapiens, 144 h; MDA-MB-468 (CTG), 6 days, starting concentration 10 μM; read-out: IH % max (maximum inhibition percentage)
Source text: as §1, §2, §3, §4, §5
Compounds D64 to D69 were tested for MDA-MB-231 (CTG) and MDA-MB-468 (CTG) with an incubation time of 72 hours in the incubator.

CCN(CCCCCOCC(=O)Nc1cccc2c1CN(C1CCC(=O)NC1=O)C2=O)CCOc1ccc(Oc2c(-c3ccc(S(C)(=O)=O)cc3)ccc3cc(O)ccc23)cc1 (centres unmarked) [Compound D1, N-(2-(2,6-dioxopiperidin-3-yl)-1-oxoisoindolin-4-yl)-2-((5-(ethyl(2-(4-((6-hydroxy-2-(4-(methylsulfonyl)phenyl)naphthalen-1-yl)oxy)phenoxy)ethyl)amino)pentyl)oxy)acetamide]
inhibition at up to 10 µM (MCF-7 ER^Y537S): 73% | inhibition at up to 10 µM (TamR-MCF-7): 33% | inhibition at up to 10 µM (MCF-7 ER^D538G): 79% | inhibition at up to 10 µM (MCF-7): 30%

CCN(CCCc1ccc2c(c1)CN(C1CCC(=O)NC1=O)C2=O)CCOc1ccc(Oc2c(-c3ccc(S(C)(=O)=O)cc3)ccc3cc(O)ccc23)cc1 (centres unmarked) [Compound D4, 3-(5-(3-(ethyl(2-(4-((6-hydroxy-2-(4-(methylsulfonyl)phenyl)naphthalen-1-yl)oxy)phenoxy)ethyl)amino)propyl)-1-oxoisoindolin-2-yl)piperidine-2,6-dione]
inhibition at up to 10 µM (MCF-7 ER^Y537S): 63% | inhibition at up to 10 µM (TamR-MCF-7): 32% | pIC50 (MCF-7 ER^D538G): 6.30 | inhibition at up to 10 µM (MCF-7 ER^D538G): 80% | inhibition at up to 10 µM (MDA-MB-468): 53%

CS(=O)(=O)c1ccc(-c2ccc3cc(O)ccc3c2Oc2ccc(OCCOCCOCCN3CCN(c4ccc5c(c4)C(=O)N(C4CCC(=O)NC4=O)C5=O)CC3)cc2)cc1 (centres unmarked) [Compound D16, 2-(2,6-dioxopiperidin-3-yl)-5-(4-(2-(2-(2-(4-((6-hydroxy-2-(4-(methylsulfonyl)phenyl)naphthalen-1-yl)oxy)phenoxy)ethoxy)ethoxy)ethyl)piperazin-1-yl)isoindoline-1,3-dione]
inhibition at up to 10 µM (TamR-MCF-7): 33% | inhibition at up to 10 µM (MCF-7 ER^D538G): 47% | inhibition at up to 10 µM (MCF-7): 51%

CS(=O)(=O)c1ccc(-c2ccc3cc(O)ccc3c2Oc2ccc(OCCOCCOCCOCCN3CCN(c4ccc5c(c4)CN(C4CCC(=O)NC4=O)C5=O)CC3)cc2)cc1 (centres unmarked) [Compound D27]
inhibition at up to 10 µM (TamR-MCF-7): 40% | inhibition at up to 10 µM (MCF-7 ER^D538G): 69% | pIC50 (MCF-7): 6.65 | inhibition at up to 10 µM (MCF-7): 60%

CS(=O)(=O)c1ccc(-c2ccc3cc(O)ccc3c2Oc2ccc(OCCN3CCN(c4ccc5c(c4)C(=O)N(C4CCC(=O)NC4=O)C5)CC3)cc2)cc1 (centres unmarked) [Compound D32, 3-(6-(4-(2-(4-((6-hydroxy-2-(4-(methylsulfonyl)phenyl)naphthalen-1-yl)oxy)phenoxy)ethyl)piperazin-1-yl)-1-oxoisoindolin-2-yl)piperidine-2,6-dione]
inhibition at up to 10 µM (MCF-7 ER^Y537S): 33% | inhibition at up to 10 µM (MCF-7 ER^D538G): 38% | inhibition at up to 10 µM (MCF-7): 39%

CCN(CCOCCOCCOCCOc1cccc2c1C(=O)N(C1CCC(=O)NC1=O)C2=O)CCOc1ccc(Oc2c(-c3ccc(S(C)(=O)=O)cc3)ccc3cc(O)ccc23)cc1 (centres unmarked) [Compound D36, 2-(2,6-dioxopiperidin-3-yl)-4-((3-ethyl-1-(4-((6-hydroxy-2-(4-(methylsulfonyl)phenyl)naphthalen-1-yl)oxy)phenoxy)-6,9,12-trioxa-3-azatetradecan-14-yl)oxy)isoindoline-1,3-dione]
inhibition at up to 10 µM (MCF-7 ER^Y537S): 51% | inhibition at up to 10 µM (MCF-7 ER^D538G): 62% | inhibition at up to 10 µM (MDA-MB-468): 37%

CCN(CCOCCNc1ccc2c(c1)C(=O)N(C1CCC(=O)NC1=O)C2=O)CCOc1ccc(Oc2c(-c3ccc(S(C)(=O)=O)cc3)ccc3cc(O)ccc23)cc1 (centres unmarked) [Compound D38, […]]
inhibition at up to 10 µM (MCF-7 ER^Y537S): 47% | inhibition at up to 10 µM (MCF-7 ER^D538G): 54%

CCN(CCOCCOCCOc1cccc2c1C(=O)N(C1CCC(=O)NC1=O)C2=O)CCOc1ccc(Oc2c(-c3ccc(S(C)(=O)=O)cc3)ccc3cc(O)ccc23)cc1 (centres unmarked) [Compound D41]
inhibition at up to 10 µM (MCF-7 ER^Y537S): 50% | inhibition at up to 10 µM (MCF-7 ER^D538G): 65% | inhibition at up to 10 µM (MDA-MB-468): 31%

CCN(CCOCCOCCNc1cccc2c1C(=O)N(C1CCC(=O)NC1=O)C2=O)CCOc1ccc(Oc2c(-c3ccc(S(C)(=O)=O)cc3)ccc3cc(O)ccc23)cc1 (centres unmarked) [Compound D42]
inhibition at up to 10 µM (MCF-7 ER^Y537S): 46% | pIC50 (MCF-7 ER^D538G): 6.55 | inhibition at up to 10 µM (MCF-7 ER^D538G): 77% | inhibition at up to 10 µM (MCF-7): 37% | inhibition at up to 10 µM (MDA-MB-468): 39%

CCN(CCOCCOCCNc1ccc2c(c1)C(=O)N(C1CCC(=O)NC1=O)C2=O)CCOc1ccc(Oc2c(-c3ccc(S(C)(=O)=O)cc3)ccc3cc(O)ccc23)cc1 (centres unmarked) [Compound D45]
inhibition at up to 10 µM (MCF-7 ER^Y537S): 44% | inhibition at up to 10 µM (TamR-MCF-7): 33% | pIC50 (MCF-7 ER^D538G): 6.70 | inhibition at up to 10 µM (MCF-7 ER^D538G): 75% | inhibition at up to 10 µM (MCF-7): 35%

CCN(CCOCCOCCOCCOc1ccc2c(c1)C(=O)N(C1CCC(=O)NC1=O)C2=O)CCOc1ccc(Oc2c(-c3ccc(S(C)(=O)=O)cc3)ccc3cc(O)ccc23)cc1 (centres unmarked) [Compound D48, 2-(2,6-dioxopiperidin-3-yl)-5-((3-ethyl-1-(4-((6-hydroxy-2-(4-(methylsulfonyl)phenyl)naphthalen-1-yl)oxy)phenoxy)-6,9,12-trioxa-3-azatetradecan-14-yl)oxy)isoindoline-1,3-dione]
inhibition at up to 10 µM (MCF-7 ER^Y537S): 41% | inhibition at up to 10 µM (MCF-7 ER^D538G): 66% | inhibition at up to 10 µM (MCF-7): 32%

CCN(CCOCC(=O)N1CCN(c2cccc3c2CN(C2CCC(=O)NC2=O)C3=O)CC1)CCOc1ccc(Oc2c(-c3ccc(S(C)(=O)=O)cc3)ccc3cc(O)ccc23)cc1 (centres unmarked) [Compound D52]
inhibition at up to 10 µM (TamR-MCF-7): 39.4% | inhibition at up to 10 µM (MCF-7): 52.6%

CCN(CCOc1ccc(Oc2c(-c3ccc(S(C)(=O)=O)cc3)ccc3cc(O)ccc23)cc1)CCN1CCN(c2ccc3c(c2)CN(C2CCC(=O)NC2=O)C3=O)CC1 (centres unmarked) [Compound D57, 3-(5-(4-(2-(ethyl(2-(4-((6-hydroxy-2-(4-(methylsulfonyl)phenyl)naphthalen-1-yl)oxy)phenoxy)ethyl)amino)ethyl)piperazin-1-yl)-1-oxoisoindolin-2-yl)piperidine-2,6-dione]
inhibition at up to 10 µM (MCF-7 ER^Y537S): 46% | inhibition at up to 10 µM (MCF-7 ER^D538G): 51%

C[C@@H]1CN(CCOc2ccc(Oc3c(-c4ccc(S(C)(=O)=O)cc4)ccc4cc(O)ccc34)cc2)[C@@H](C)CN1CCN1CCN(c2ccc3c(c2)C(=O)N(C2CCC(=O)NC2=O)C3)CC1 (stereo partly drawn) [Compound D61, 3-(6-(4-(2-((2R,5S)-4-(2-(4-((6-hydroxy-2-(4-(methylsulfonyl)phenyl)naphthalen-1-yl)oxy)phenoxy)ethyl)-2,5-dimethylpiperazin-1-yl)ethyl)piperazin-1-yl)-1-oxoisoindolin-2-yl)piperidine-2,6-dione]
inhibition at up to 10 µM (TamR-MCF-7): 40.2% | inhibition at up to 10 µM (MCF-7): 45.6% | inhibition at up to 10 µM (MDA-MB-468): 32.7%
